Experimental data published in US5459064A, “Protease” (Shionogi & Co., Ltd., priority 1990, dated 1995).
Residues, ends and D or L forms follow the SMILES beside them. *: point of attachment. Cbz = O=C(OCc1ccccc1)*; CH2Cl = ClC*

Assays:
[1] = biological target: BLase (the present enzyme) (Bacillus licheniformis, UniProt P80057); test: Effect of inhibitors on the present enzyme; assay type: biochemical, Bacillus licheniformis ATCC No. 14580
[2] = test system: oxidized insulin B chain; test: Cleavage of oxidized insulin B chain, HPLC peptide mapping; assay type: biochemical; settings: 50 mM ammonium bicarbonate pH 7.8, enzyme/substrate 1/100 (W/W)

Sequence of BLase (the present enzyme) (P80057 95-316): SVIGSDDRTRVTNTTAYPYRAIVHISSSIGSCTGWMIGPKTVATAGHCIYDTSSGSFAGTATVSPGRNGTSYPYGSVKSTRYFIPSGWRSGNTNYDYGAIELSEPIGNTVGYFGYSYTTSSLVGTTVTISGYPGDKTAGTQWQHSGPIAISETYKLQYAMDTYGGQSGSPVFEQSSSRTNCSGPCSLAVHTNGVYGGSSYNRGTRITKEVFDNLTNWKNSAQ

O=C(O)CN(CCN(CC(=O)O)CC(=O)O)CC(=O)O [EDTA]
Inhibition of the present enzyme [1]: partially inhibited
Inhibitory effect after addition of metal ions [1]: completely nullified
Maximum inhibition ratio [1]: approximately 72%

CC(C)C[C@H](NC(=O)[C@H](Cc1ccccc1)NC(=O)OCc1ccccc1)C(=O)N[C@@H](CCC(=O)O)C(=O)CCl [Z-Phe Leu Glu CH2 Cl] (Cbz-Phe-Leu-Glu-CH2Cl)
Inhibition of the present enzyme [1]: completely inhibited

V8 protease: Serine protease from the V8 strain of Staphylococcus aureus, cleaves at the carboxyl terminal of glutamic acid residues
Action on oxidized insulin B chain (peptide mapping) [2]: the peptide bonds at the carboxyl termini of the glutamic acid residues were cleaved
